Data taken from patent US20240197691A1, “TACROLIMUS COMPOSITIONS AND METHODS OF USE” (CN2 THERAPEUTICS, INC., priority 2022, published 2024).
Several values for one entry are separate records, joined by “and”; a condition that tells them apart may be missing. Equal entries are not always repeated. Blank lines part the entries; values can stand above or below the molecule they belong to.

Experiments:
[1] = Forced degradation (thermal, acidic, basic, oxidative, UV); assay type: physicochemical
Description: Forced degradation of the drug product by thermal, acidic, basic, oxidative and UV stress conditions was performed. Forced degradation for the thermal, acidic and oxidative conditions were performed at 40° C., as it was anticipated that the drug would be stable under these conditions, based on its structure. UV and basic conditions were performed at ambient conditions. The drug product is most susceptible to basic stress conditions, and to a lesser extent is susceptible to UV and oxidative conditions. A summary of all the degradation peaks as a function of the stress condition can be found in Table 28.

[2] = Gamma irradiation of Tacrolimus; assay type: physicochemical
Excerpt: In certain embodiments, the composition can be irradiated before administration to a subject. For example, at least one component of the composition, such as, for example, tacrolimus, can undergo gamma irradiation before the final composition is created or the final composition can undergo gamma irradiation. In certain embodiments, the composition can be irradiated at a dose ranging from about 1 kilo-Gray (kGy) to about 100 kGy, preferably about 10 kGy to about 75 kGy, most preferably about 15 kGy to about 40 kGy.
The composition can be irradiated at a dose ranging from about 1 kilo-Gray (kGy) to about 100 kGy, preferably about 10 kGy to about 75 kGy, most preferably about 15 kGy to about 40 kGy (Table 36).

[3] = pH 5
[4] = reported; cited from earlier work
[5] = Surface tension (pendant drop); assay type: physicochemical; conditions: Theta Lite Optical Tensiometer, 5 μL
Description: The Theta Lite Optical Tensiometer, Pendant drop Method, 5 μL sample size was used to measure the surface tension of the tacrolimus compositions.

[6] = Contact angle on parafilm; assay type: physicochemical; conditions: 20 μL on parafilm, ambient temperature
Description: The Theta Lite Optical Tensiometer, Dynamic Contact Angle Measurement, 20 μL sample size was used to measure the contact angle of the tacrolimus compositions of parafilm of 73.50 and 73.20. The tacrolimus composition has better wettability on the hydrophobic surface of parafilm when compared to water (97.90 and 99.90).

Molecule: C=CC[C@@H]1/C=C(\C)C[C@H](C)C[C@H](OC)[C@H]2O[C@@](O)(C(=O)C(=O)N3CCCC[C@H]3C(=O)O[C@H](/C(C)=C/[C@@H]3CC[C@@H](O)[C@H](OC)C3)[C@H](C)[C@@H](O)CC1=O)[C@H](C)C[C@@H]2OC.O [Tacrolimus]
Degradant at RRT 0.52, Area % ([1]; Acid, 72h (40° C.)): 0.52 (0.47%)
Degradant at RRT 1.32, Area % ([1]; Acid, 72h (40° C.)): 1.32 (0.09%)
Degradant at RRT 1.36, Area % ([1]; Acid, 72h (40° C.)): 1.36 (0.07%)
Degradant at RRT 0.39, Area % ([1]; Base, 5 min (ambient)): 0.39 (1.52%)
Degradant at RRT 0.52, Area % ([1]; Base, 5 min (ambient)): 0.52 (27.62%)
Degradant at RRT 0.79, Area % ([1]; Base, 5 min (ambient)): 0.79 (0.97%)
Degradant at RRT 1.28, Area % ([1]; Base, 5 min (ambient)): 1.28 (0.20%)
Degradant at RRT 1.32, Area % ([1]; Base, 5 min (ambient)): 1.32 (3.02%)
Degradant at RRT 1.35, Area % ([1]; Base, 5 min (ambient)): 1.35 (2.37%)
Degradant at RRT 0.43, Area % ([1]; Peroxide, 48 h (40° C.)): 0.43 (2.03%)
Degradant at RRT 1.18, Area % ([1]; Peroxide, 48 h (40° C.)): 1.18 (0.17%)
Degradant at RRT 1.20, Area % ([1]; Peroxide, 48 h (40° C.)): 1.20 (0.05%)
Degradant at RRT 1.25, Area % ([1]; Peroxide, 48 h (40° C.)): 1.25 (0.35%)
Degradant at RRT 1.27, Area % ([1]; Peroxide, 48 h (40° C.)): 1.27 (0.16%)
Degradant at RRT 1.29, Area % ([1]; Peroxide, 48 h (40° C.)): 1.29 (0.10%)
Degradant at RRT 1.33, Area % ([1]; Peroxide, 48 h (40° C.)): 1.33 (0.06%)
Degradant at RRT 1.44, Area % ([1]; Peroxide, 48 h (40° C.)): 1.44 (0.08%)
Degradant at RRT 0.43, Area % ([1]; Thermal, 72 h (40° C.)): 0.43 (0.96%)
Degradant at RRT 0.38, Area % ([1]; UV, 72 h (ambient)): 0.38 (0.36%)
Degradant at RRT 0.45, Area % ([1]; UV, 72 h (ambient)): 0.45 (0.88%)
Degradant at RRT 0.53, Area % ([1]; UV, 72 h (ambient)): 0.53 (3.07%)
Degradant at RRT 0.58, Area % ([1]; UV, 72 h (ambient)): 0.58 (0.40%)
Degradant at RRT 1.03, Area % ([1]; UV, 72 h (ambient)): 1.03 (1.30%)
Degradant at RRT 1.10, Area % ([1]; UV, 72 h (ambient)): 1.10 (0.94%)
Degradant at RRT 1.13, Area % ([1]; UV, 72 h (ambient)): 1.13 (2.90%)
Degradant at RRT 1.17, Area % ([1]; UV, 72 h (ambient)): 1.17 (5.21%)
Degradant at RRT 1.21, Area % ([1]; UV, 72 h (ambient)): 1.21 (13.81%)
% impurities ([2]; 15 kGy solid): 0.82%
Total [Tac] in sample measured ([2]; 15 kGy solid): 0.96 mg/g
% impurities ([2]; 25 kGy solid): 0.88%
Total [Tac] in sample measured ([2]; 25 kGy solid): 0.92 mg/g
% impurities ([2]; 40 kGy solid): 0.91%
Total [Tac] in sample measured ([2]; 40 kGy solid): 0.91 mg/g
% impurities ([2]; Control solid): 0.56%
Total [Tac] in sample measured ([2]; Control solid): 0.99 mg/g
Solubility of Tacrolimus in the supernatant [3]: ≤ 3.2 µg/g
log P [4]: 3.3

Surface Tension [5]: 72 mN/m
Contact angle [6]: 97.9 ° and 99.9 °
Molecule: Water
